According to PubChem BioAssay AID248 (DTP/NCI, 2004):
Several values for one entry are separate records, joined by “and”; a condition that tells them apart may be missing. Equal values may be shown once. Toxic doses and inconclusive results are not listed. No stated cut-off is given here; in the data, active means T/C of 150% or more; inactive means T/C below 125%.

System: L1210 leukemia ip in BDF1 mice, survival T/C
Experiment: NCI In Vivo Anticancer Drug Screen. Data for tumor model L1210 Leukemia (intraperitoneal) in B6D2F1 (BDF1) mice
Conditions: endpoint: mean survival time, higher = longer survival
How it was run: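 Antitumor effect is assessed in tumor-bearing animals. Survival in the compound arm is compared with a vehicle-dosed control arm and expressed as their quotient.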

[1] = dose: 75.0 mg/kg/injection, schedule: Q01DX001 (ip), vehicle: saline
[2] = dose: 100.0 mg/kg/injection, schedule: Q04DX003 (ip), vehicle: Klucel (hydroxypropylcellulose) (HPC)
[3] = dose: 200.0 mg/kg/injection, schedule: Q04DX003 (ip), vehicle: Klucel (hydroxypropylcellulose) (HPC)
[4] = dose: 400.0 mg/kg/injection, schedule: Q04DX003 (ip), vehicle: Klucel (hydroxypropylcellulose) (HPC)
[5] = dose: 100.0 mg/kg/injection, schedule: Q04DX002 (ip), vehicle: Klucel (hydroxypropylcellulose) (HPC)
[6] = dose: 200.0 mg/kg/injection, schedule: Q04DX002 (ip), vehicle: Klucel (hydroxypropylcellulose) (HPC)
[7] = dose: 400.0 mg/kg/injection, schedule: Q04DX002 (ip), vehicle: Klucel (hydroxypropylcellulose) (HPC)
[8] = dose: 50.0 mg/kg/injection, schedule: Q01DX009 (ip), vehicle: saline with Tween-80
[9] = dose: 100.0 mg/kg/injection, schedule: Q01DX009 (ip), vehicle: saline with Tween-80
[10] = dose: 200.0 mg/kg/injection, schedule: Q01DX009 (ip), vehicle: saline with Tween-80
[11] = dose: 100.0 mg/kg/injection, schedule: Q04DX003 (ip), vehicle: saline with Tween-80
[12] = dose: 200.0 mg/kg/injection, schedule: Q04DX003 (ip), vehicle: saline with Tween-80
[13] = dose: 400.0 mg/kg/injection, schedule: Q04DX003 (ip), vehicle: saline with Tween-80
[14] = dose: 12.5 mg/kg/injection, schedule: Q01DX009 (ip), vehicle: saline with Tween-80
[15] = dose: 25.0 mg/kg/injection, schedule: Q01DX009 (ip), vehicle: saline with Tween-80
[16] = dose: 25.0 mg/kg/injection, schedule: Q04DX003 (ip), vehicle: saline with Tween-80
[17] = dose: 50.0 mg/kg/injection, schedule: Q04DX003 (ip), vehicle: saline with Tween-80
[18] = dose: 100.0 mg/kg/injection, schedule: Q01DX009 (ip), vehicle: Klucel (hydroxypropylcellulose) (HPC)
[19] = dose: 200.0 mg/kg/injection, schedule: Q01DX009 (ip), vehicle: Klucel (hydroxypropylcellulose) (HPC)
[20] = dose: 400.0 mg/kg/injection, schedule: Q01DX009 (ip), vehicle: Klucel (hydroxypropylcellulose) (HPC)

Measured: T/C

CN=C(NC)c1ccc(NC(=O)c2ccc(C(=O)Nc3ccc(C(=NC)NC)cc3)c([N+](=O)[O-])c2)cc1
inactive: dose: 1.88 mg/kg/injection, schedule: Q01DX Z (ip), vehicle: saline 100 % of control | dose: 3.75 mg/kg/injection, schedule: Q01DX Z (ip), vehicle: saline 111 % of control | dose: 7.5 mg/kg/injection, schedule: Q01DX Z (ip), vehicle: saline 108 % of control

CCc1c2cc3c(cc2cc2c4cc5c(cc4cc[n+]12)OCO5)OCO3 (tested in a mixture with another compound)
inactive: dose: 3.13 mg/kg/injection, schedule: Q01DX009 (ip), vehicle: Klucel (hydroxypropylcellulose) (HPC) 122 % of control | dose: 3.13 mg/kg/injection, schedule: Q04DX003 (ip), vehicle: Klucel (hydroxypropylcellulose) (HPC) 113 % of control | dose: 6.25 mg/kg/injection, schedule: Q01DX009 (ip), vehicle: Klucel (hydroxypropylcellulose) (HPC) 110 % of control | dose: 6.25 mg/kg/injection, schedule: Q04DX003 (ip), vehicle: Klucel (hydroxypropylcellulose) (HPC) 110 % of control | dose: 12.5 mg/kg/injection, schedule: Q04DX003 (ip), vehicle: Klucel (hydroxypropylcellulose) (HPC) 113 % of control and 115 % of control

NNC(=O)c1ccc[nH]1
inactive: [1] 102 % of control

S=C(Nc1ccc(Cl)cc1)Nc1ccc(Cl)cc1
inactive: [2] 108 % of control | [3] 103 % of control | [4] 97 % of control

COc1ccc(OC)c2[nH]c(-c3ccc(Cl)cc3)cc12
inactive: [5] 99 % of control | [6] 102 % of control | [7] 89 % of control

CC(=O)Nc1ncc([N+](=O)[O-])s1
inactive: [8] 97 % of control | [9] 98 % of control | [10] 104 % of control

CNc1ccccc1C(=O)N/N=C\c1ccc(Cl)cc1Cl
inactive: [5] 105 % of control | [6] 94 % of control | [7] 97 % of control

O=C(NOC(=O)c1ccccc1)c1ccccc1
inactive: dose: 25.0 mg/kg/injection, schedule: Q04DX002 (ip), vehicle: Klucel (hydroxypropylcellulose) (HPC) 97 % of control | dose: 50.0 mg/kg/injection, schedule: Q04DX002 (ip), vehicle: Klucel (hydroxypropylcellulose) (HPC) 97 % of control | [5] 97 % of control | [11] 103 % of control | [12] 91 % of control | [13] 101 % of control

C=C1C(=O)OC2CC3(C)C(OC(C)=O)CC=C(C)C3C(OC(C)=O)C12 (centres undefined) (tested in a mixture with another compound)
inactive: [1] 96 % of control | dose: 150.0 mg/kg/injection, schedule: Q01DX001 (ip), vehicle: saline 100 % of control

COC1=C(OC)C(=O)C(SCCCc2ccccc2)=CC1=O
inactive: dose: 1.56 mg/kg/injection, schedule: Q01DX009 (im), vehicle: olive oil, sesame oil, peanut oil 101 % of control | dose: 3.13 mg/kg/injection, schedule: Q01DX009 (im), vehicle: olive oil, sesame oil, peanut oil 96 % of control | dose: 6.25 mg/kg/injection, schedule: Q01DX009 (im), vehicle: olive oil, sesame oil, peanut oil 98 % of control | dose: 12.5 mg/kg/injection, schedule: Q01DX009 (im), vehicle: olive oil, sesame oil, peanut oil 101 % of control | dose: 25.0 mg/kg/injection, schedule: Q01DX009 (im), vehicle: olive oil, sesame oil, peanut oil 98 % of control

N#C/C(=C\c1ccc(-c2ccccc2)cc1)c1ccccc1
inactive: [14] 87 % of control | dose: 12.5 mg/kg/injection, schedule: Q04DX003 (ip), vehicle: saline with Tween-80 109 % of control | [15] 87 % of control | [16] 91 % of control | [8] 86 % of control | [17] 88 % of control

O=C(COc1ccc(Cl)cc1C(=O)O)NCc1ccc([N+](=O)[O-])cc1
inactive: dose: 75.0 mg/kg/injection, schedule: Q01DX009 (ip), vehicle: Klucel (hydroxypropylcellulose) (HPC) 106 % of control | dose: 150.0 mg/kg/injection, schedule: Q01DX009 (ip), vehicle: Klucel (hydroxypropylcellulose) (HPC) 104 % of control | dose: 300.0 mg/kg/injection, schedule: Q01DX009 (ip), vehicle: Klucel (hydroxypropylcellulose) (HPC) 101 % of control

Nc1nc(Cc2cccc3ccccc23)nc(Cc2cccc3ccccc23)n1
inactive: [2] 87 % of control | [3] 92 % of control

COc1cc(C(C)O)cc(OC)c1OC (centres undefined)
inactive: [9] 101 % of control | [11] 101 % of control | [10] 98 % of control | [12] 100 % of control | dose: 400.0 mg/kg/injection, schedule: Q01DX009 (ip), vehicle: saline with Tween-80 93 % of control | [13] 99 % of control

O=C(c1ccccc1)C1C(C(=O)c2ccccc2)N1Cc1ccccc1 (centres undefined)
inactive: [18] 100 % of control | [2] 96 % of control and 93 % of control | [19] 101 % of control | [3] 96 % of control and 91 % of control | [20] 97 % of control | [4] 93 % of control and 100 % of control

CCCCC(=O)c1cc(OC)cc(OC)c1
inactive: dose: 50.0 mg/kg/injection, schedule: Q01DX001 (ip), vehicle: other 109 % of control | dose: 100.0 mg/kg/injection, schedule: Q01DX001 (ip), vehicle: Klucel (hydroxypropylcellulose) (HPC) 95 % of control | dose: 100.0 mg/kg/injection, schedule: Q01DX001 (ip), vehicle: other 102 % of control | [18] 97 % of control | dose: 200.0 mg/kg/injection, schedule: Q01DX001 (ip), vehicle: Klucel (hydroxypropylcellulose) (HPC) 95 % of control | dose: 200.0 mg/kg/injection, schedule: Q01DX001 (ip), vehicle: other 104 % of control | [19] 96 % of control | dose: 400.0 mg/kg/injection, schedule: Q01DX001 (ip), vehicle: Klucel (hydroxypropylcellulose) (HPC) 98 % of control | dose: 400.0 mg/kg/injection, schedule: Q01DX001 (ip), vehicle: other 91 % of control | [20] 100 % of control

CCCCCCCCCCCC(c1ccccc1)N(C)C (centres undefined)
inactive: dose: 50.0 mg/kg/injection, schedule: Q01DX001 (ip), vehicle: saline 98 % of control | dose: 100.0 mg/kg/injection, schedule: Q01DX001 (ip), vehicle: saline 93 % of control | dose: 200.0 mg/kg/injection, schedule: Q01DX001 (ip), vehicle: saline 93 % of control | dose: 400.0 mg/kg/injection, schedule: Q01DX001 (ip), vehicle: saline 93 % of control

C=CCC1(CC)C(=O)NC(=O)NC1=O
inactive: dose: 50.0 mg/kg/injection, schedule: Q01DX009 (ip), vehicle: saline sonified 102 % of control | dose: 100.0 mg/kg/injection, schedule: Q01DX009 (ip), vehicle: saline sonified 110 % of control | [2] 94 % of control | dose: 200.0 mg/kg/injection, schedule: Q01DX009 (ip), vehicle: saline sonified 108 % of control | [3] 94 % of control

CN1CCN(C(=O)Cc2c[nH]c3ccccc23)CC1
inactive: dose: 6.25 mg/kg/injection, schedule: Q01DX009 (ip), vehicle: saline with Tween-80 104 % of control | [14] 100 % of control | [15] 120 % of control and 91 % of control | [16] 100 % of control | [8] 95 % of control and 117 % of control | [17] 102 % of control | [9] 115 % of control and 88 % of control | [11] 103 % of control and 108 % of control
